Patent publication EP0256125A1, “MEANS FOR PREVENTING MICROBIOLOGICAL OVERGROWING OF HARD SURFACE” (priority 1985, dated 1987)

Tests used:
[1] = Solubility in solvents (qualitative)
Bakterien = assay: Bactericidal activity, summary over all tested bacteria; type: cell-based
Protocol: (§1) Die bakterizide Aktivität des Kalium N-(vinyloxyethyl)-dithiocarbamats gegenüber den Bakterien, die von der Oberfläche von Wänden und Decken der Produktionsräume von Brauereien und Fabriken zur Herstellunq von alkoholfreien Getränken ausgeschieden wurden und die zu p.p.Bacillus, Micrococcus, Pseudomonas, Escherichiae gehören, wurde geprüft.
(§2) Es wurden wäßrige Lösungen des genannten Stoffes verschiedener Konzentration hergestellt, die so berechnet wurde, daß bei Einführung von 1 ml der Lösung in 25 ml geschmolzenen agarisierten Nährboden (45-50°C) die Konzentration des Stoffes im Nährboden von 0,003 bis 0,5% betrug. In 18 bis 24 Stunden wurde auf die Oberfläche des Nährbodens 0,1 ml der wäßrigen Suspension der eintägigen reinen Bakterienkulturen aufgetragen, die am Fleisch-Pepton-Agar gezüchtet wurden. Die Suspension wurde gleichmäßig verteilt. In Kontrollschalen wurden 0,1 ml Wasser auf der Oberfläche des Närhbodens verteilt.
(§3) Die Inkubation führte man bei einer Temperatur von 37°C während 5 Tage durch.
(§4) Die effektive Wirkung des Stoffes wurde nach dem Auftreten des Bakterienwachstums an der Oberfläche des Nährbodens bewertet.

[2] = Acute toxicity in white mice; details: mouse, in vivo, po
Acremonium charticola = assay: Fungicidal activity, inhibition of mycelium growth on wort agar; type: cell-based; details: Acremonium charticola, 120 h, read-out: Hemmung des Myzeliums am 5. Tag des Wachstums, Acremonium charticola
Text: (§5) Man prüfte die funguzide Aktivität von Zink-bis-(N-vi- nyloxyethyl)dithiocarbamat gegenüber den reinen Pilzkulturen: Gladosporium resinae, Cladosporium cladosporioides, Acremonium corvum, Acremonium charticola, Penicillium charlesii Smith, Walrotiela subiculesa, Geotrichum candidum Link, Oidium, Penicillium crysogenum. Die genannten Pilze wurden von den Oberflächen der Wände und Decken von Bierbrauereien und Werken für die Herstellung von alkoholfreien Getränken ausgeschieden.
(§6) […] In eine der Petri-Schalen wurde Nährboden mit 1 ml Azeton (Kontrolle) gegossen.
(§7) In 18 bis 20 Stunden nach dem Vergießen des Nährbodens in die Petri-Schalen führte man die Inokulation der reinen Pilzkultur durch, die vorher an einem Schräg-Würzeagar während 15 Tage gezüchtet wurden. Die Inkubation führte man bei einer Temperatur von 25 bis 27°C während 5 Tage durch. Danach wurde der Durchmesser der Pilzkolonien gemessen und der Prozentsatz der Hemmung des Wachstums des Myzeliums (S) nach der Abbott -Formel gezählt: [formula] worin dc Durchmesser der Pilzkolonien in Kontrolle ist, de =Durchmesser der Pilzkolonien in einer Schale mit dem Nährboden ist, der Zink-bis-(N-vinyloxyethyl)dithiocarbamat enthält.

Acremonium corvum = assay: as above; type: cell-based; details: 120 h, read-out: Hemmung des Myzeliums am 5. Tag des Wachstums, Acremonium corvum
Text: as §5, §6, §7

Geotrichum candidum Link = assay: as above; type: cell-based
Text: as §5, §6, §7

Penicillium chrysogenum = assay: as above; type: cell-based
Text: as §5, §6, §7

[3] = system: Penicillium charlesii Smith; assay: as above; type: cell-based; details: Penicillium charlesii, 120 h, read-out: Hemmung des Myzeliums am 5. Tag des Wachstums, Penicillium charlesii Smith
Text: as §5, §6, §7

Oidium = assay: as above; type: cell-based
Text: as §5, §6, §7

Walrotiela subiculesa = assay: as above; type: cell-based; details: 120 h, read-out: Hemmung des Myzeliums am 5. Tag des Wachstums, Walrotiela subiculesa
Text: as §5, §6, §7

Cladosporium resinae = assay: as above; type: cell-based; details: Amorphotheca resinae, 120 h, read-out: Hemmung des Myzeliums am 5. Tag des Wachstums, Cladosporium resinae
Text: as §5, §6, §7

[4] = system: Cladosporium cladosporioides; assay: as above; type: cell-based; details: Cladosporium cladosporioides, 120 h, read-out: Hemmung des Myzeliums am 5. Tag des Wachstums, Cladosporium cladosporioides
Text: as §5, §6, §7

[5] = Storage stability (qualitative); type: physicochemical; details: result in words
p.Bacillus = assay: Bactericidal activity, growth on agar medium; type: cell-based; details: 37°C, 5 Tage
Protocol: as §1, §2, §3, §4

p.Micrococcus = assay: Bactericidal activity, growth on agar medium; type: cell-based; details: 37°C, 5 Tage
Protocol: as §1, §2, §3, §4

p.Pseudomonas = assay: Bactericidal activity, growth on agar medium; type: cell-based; details: 37°C, 5 Tage
Protocol: as §1, §2, §3, §4

p. Escherichiae = assay: Bactericidal activity, growth on agar medium; type: cell-based; details: 37°C, 5 Tage
Protocol: as §1, §2, §3, §4

[6] = Konzentration des Stoffes 0,00075 %
[7] = Konzentration des Stoffes 0,0015 %
[8] = Konzentration des Stoffes 0,003 %
[9] = Konzentration des Stoffes 0,006 %
[10] = Konzentration des Stoffes 0,012 %

C=COCCNC(=S)[S-].[K+] [Kalium-N-(vinyloxyethyl)dithiocarbamat]
Löslichkeit im Alkohol ([1]; Alkohol (Ethylalkohol)): teilweise
Löslichkeit im Azeton ([1]; Azeton): teilweise
Löslichkeit im Diethylether ([1]; Diethylether): unlöslich
Löslichkeit in Wasser ([1]; Wasser): gut löslich
Konzentration, die das Wachstum der Bakterien vollständig hemmte (Bakterien): 0,05%
LD50 [2]: 1400 ± 350 mg/kg
inhibition of growth (Acremonium charticola; [6]): 90%
inhibition of growth at 0.0015 % (Acremonium charticola; [7]): 100%
inhibition of growth at 0.003 % (Acremonium charticola; [8]): 100%
inhibition of growth at 0.006 % (Acremonium charticola; [9]): 100%
inhibition of growth at 0.012 % (Acremonium charticola; [10]): 100%
inhibition of growth (Acremonium corvum; [6]): 94%
inhibition of growth at 0.0015 % (Acremonium corvum; [7]): 100%
inhibition of growth at 0.003 % (Acremonium corvum; [8]): 100%
inhibition of growth at 0.006 % (Acremonium corvum; [9]): 100%
inhibition of growth at 0.012 % (Acremonium corvum; [10]): 100%
inhibition of growth at 0.00075 % (Geotrichum candidum Link; Geotrichum candidum, 120 h, Konzentration des Stoffes 0,00075 %, read-out: Hemmung des Myzeliums am 5. Tag des Wachstums, Geotrichum candidum Link): 10%
inhibition of growth at 0.012 % (Geotrichum candidum Link; Geotrichum candidum, 120 h, Konzentration des Stoffes 0,012 %, read-out: Hemmung des Myzeliums am 5. Tag des Wachstums, Geotrichum candidum Link): 100%
Hemmung des Myzeliums am 5. Tag des Wachstums, Geotrichum candidum Link (Geotrichum candidum Link; [7]): 40%
Hemmung des Myzeliums am 5. Tag des Wachstums, Geotrichum candidum Link (Geotrichum candidum Link; [8]): 100%
Hemmung des Myzeliums am 5. Tag des Wachstums, Geotrichum candidum Link (Geotrichum candidum Link; [9]): 100%
Hemmung des Myzeliums am 5. Tag des Wachstums, Penicillium chrysogenum (Penicillium chrysogenum; [7]): 30%
Hemmung des Myzeliums am 5. Tag des Wachstums, Penicillium chrysogenum (Penicillium chrysogenum; [8]): 55%
inhibition of growth at 0.00075 % (Penicillium chrysogenum; Penicillium chrysogenum, 120 h, Konzentration des Stoffes 0,00075 %, read-out: Hemmung des Myzeliums am 5. Tag des Wachstums, Penicillium chrysogenum): 0%
inhibition of growth at 0.006 % (Penicillium chrysogenum; Penicillium chrysogenum, 120 h, Konzentration des Stoffes 0,006 %, read-out: Hemmung des Myzeliums am 5. Tag des Wachstums, Penicillium chrysogenum): 90%
inhibition of growth at 0.012 % (Penicillium chrysogenum; Penicillium chrysogenum, 120 h, Konzentration des Stoffes 0,012 %, read-out: Hemmung des Myzeliums am 5. Tag des Wachstums, Penicillium chrysogenum): 100%
inhibition of growth [3, 6]: 5%
inhibition of growth at 0.0015 % [3, 7]: 30%
inhibition of growth at 0.003 % [3, 8]: 55%
inhibition of growth at 0.006 % [3, 9]: 90%
inhibition of growth at 0.012 % [3, 10]: 100%
inhibition of growth at 0.00075 % (Oidium; 120 h, Konzentration des Stoffes 0,00075 %, read-out: Hemmung des Myzeliums am 5. Tag des Wachstums, Oidium): 40%
inhibition of growth at 0.003 % (Oidium; 120 h, Konzentration des Stoffes 0,003 %, read-out: Hemmung des Myzeliums am 5. Tag des Wachstums, Oidium): 100%
inhibition of growth at 0.006 % (Oidium; 120 h, Konzentration des Stoffes 0,006 %, read-out: Hemmung des Myzeliums am 5. Tag des Wachstums, Oidium): 100%
inhibition of growth at 0.012 % (Oidium; 120 h, Konzentration des Stoffes 0,012 %, read-out: Hemmung des Myzeliums am 5. Tag des Wachstums, Oidium): 100%
Hemmung des Myzeliums am 5. Tag des Wachstums, Oidium (Oidium; [7]): 96%
inhibition of growth at 0.00075 % (Walrotiela subiculesa; [6]): 90%
inhibition of growth at 0.0015 % (Walrotiela subiculesa; [7]): 100%
inhibition of growth at 0.003 % (Walrotiela subiculesa; [8]): 100%
inhibition of growth at 0.006 % (Walrotiela subiculesa; [9]): 100%
inhibition of growth at 0.012 % (Walrotiela subiculesa; [10]): 100%
inhibition of growth (Cladosporium resinae; [6]): 70%
inhibition of growth at 0.0015 % (Cladosporium resinae; [7]): 100%
inhibition of growth at 0.003 % (Cladosporium resinae; [8]): 100%
inhibition of growth at 0.006 % (Cladosporium resinae; [9]): 100%
inhibition of growth at 0.012 % (Cladosporium resinae; [10]): 100%
inhibition of growth [4, 6]: 100%
inhibition of growth at 0.0015 % [4, 7]: 100%
inhibition of growth at 0.003 % [4, 8]: 100%
inhibition of growth at 0.006 % [4, 9]: 100%
inhibition of growth at 0.012 % [4, 10]: 100%
Lagerbeständigkeit [5]: lagerbeständig
Konzentration der Salze der N-(vinyloxyethyl)dithiocarbaminsäure (100%), die das Wachstum der Bakterien am 5. Tag des Wachstums hemmen, p.Bacillus (p.Bacillus): 0,05%
Konzentration der Salze der N-(vinyloxyethyl)dithiocarbaminsäure (100%), die das Wachstum der Bakterien am 5. Tag des Wachstums hemmen, p.Micrococcus (p.Micrococcus): 0,05%
Konzentration der Salze der N-(vinyloxyethyl)dithiocarbaminsäure (100%), die das Wachstum der Bakterien am 5. Tag des Wachstums hemmen, p.Pseudomonas (p.Pseudomonas): 0,05%
Konzentration der Salze der N-(vinyloxyethyl)dithiocarbaminsäure (100%), die das Wachstum der Bakterien am 5. Tag des Wachstums hemmen, p. Escherichiae (p. Escherichiae): 0,05%
